The text below walks through data of article PMC9400670, “Establishing the selective phospholipid membrane coordination, permeation and lysis properties for a series of ‘druggable’ supramolecular self-associating antimicrobial amphiphiles” (Chemical Science, 2022).

Test [1] deals with E. coli DH10B. As to the kind of experiment: MIC50 determination and initial screening from OD600 growth curves, E. coli DH10B. Type of test: cell-based, Escherichia coli. Particulars: for inhibition at 3300 µM / MIC50: Escherichia coli, 15 h; for inhibition at 3300 µM: DH10B, 3.3 mM, read-out: initial antimicrobial screening, inhibition of growth, E. coli; for MIC50: E. coli DH10B. The text has this: The antimicrobial activity of SSAs 1–14 was established against both a model Gram-positive, clinically relevant methicillin resistant Staphylococcus aureus (MRSA), and a model Gram-negative, E. coli bacteria, Table 1. Here MIC50 values are given in mM to enable the derivation of molecular structure: antimicrobial efficacy: physical property relationships. […]
Data were acquired in endpoint mode. […]
Section 3: Microbial Methods
These methods were taken directly from UK Health and Security Office (UKHSA) standard operating […]
Preparation of Luria Broth media (LB): Yeast extract (5 g), tryptone (10 g) and sodium chloride (10 g) were dissolved in dH₂O (1 L) then divided into bottles and autoclaved.
Preparation of Luria Broth (LB) agar plates: Agar (6 g) was added to LB (400 mL) and autoclaved. Once cool, the LB agar was poured into sterile petri dishes under sterile conditions and allowed to set. LB plates were stored at 4 °C until use.
Preparation of bacterial plates: Sterile LB agar plates were streaked using Escherichia coli DH10B or USA300 Methicillin-Resistant Staphylococcus aureus then incubated at 37 °C overnight.
Preparation of Inoculum: An initial culture was made up by inoculating LB media (5 mL) with a single colony of bacteria under sterile conditions and incubated at 37 °C with shaking overnight. The following day, overnight bacterial cultures were subcultured into fresh LB medium to a starting OD600 […]
Preparation of 96 well microplate for screening: 20 mM solutions of each compound to be tested were made up using 5 % ethanol. The 1:100 cell suspension (150 µL) was pipetted into the wells and SSA compound solutions (30 µL) were added into each well. The final screening concentration for each compound was 3.3 mM in the well. These were incubated for 20 hours in a plate reader, with optical density readings being taken at 600 nm every 15 minutes. Optical density readings were plotted against time to produce growth curves. […]
individual wells under sterile conditions. Compounds (30 µL) were added to the wells to equal a total volume of 180 µL in the wells. Six repeats of each concentration for each compound were created each plate. The plates were sealed using parafilm, then incubated at 37°C in a microplate reader for 18-25 hours. Optical density readings were taken at 600 nm every 15 min. Data was used to generate […]
Calculation of MIC50: Growth curves were plotted using OD600 optical density readings in Microsoft ® Excel ® 2013. OD600 optical density readings 900 minutes from the start of each of these growth cultures for each concentration of compound were plotted in Origin ® 2015. The resultant curve was normalized and fitted using the Boltzmann fit to define the MIC50 values for each compound.

Test [2] relates to PG nanodiscs. As to the kind of experiment: Phospholipid nanodisc 1H NMR CPMG coordination assay, PG nanodiscs. It counts as binding. The following applies: SSA 100 µM. The source says:
Finally, to establish how any single SSA structural variation affects the coordination of an individual salt component to the surface of a phospholipid membrane, the binding of the anionic and cationic components of SSAs 5–12 with nanodiscs comprised of PC, PG or the PE : PG mix (Table 2) was studied. Nanodiscs were synthesised from synthetic vesicles of the relevant phospholipid composition. For full synthetic procedures and nanodisc characterisation please see ESI (Section 13). ^†[34,35]
Styrene-maleic acid (SMA) nanodiscs are small biomimetic scaffolds with a hydrodynamic diameter ≈ 10 nm. They consist of a single disc-shaped planar phospholipid bilayer, ‘belted’ in this instance with a synthetic SMA co-polymer. Here nanodiscs of a specific phospholipid composition were titrated against a solution of SSAs 5–12 (0.10 mM) in a sodium phosphate buffer (20 mM) with NaCl (20 mM) at pH 7.4. This solution was supplemented with 5% D2O, to enable NMR locking and 4,4-dimethyl4-silapentane-1-sulfonic acid (DSS – 0.02 mM) to act as an internal standard. The nanodiscs were then titrated against the SSA, while the SSA concentration was maintained as constant, well below the CMC (Table 3).[38] A 1D ^1H NMR with a Carr–Purcell–Meiboom–Gill sequence (CPMG) filter (300 ms),[36,48] modified with a watergate element was then obtained for each experimental data point. The watergate element was used to allow suppression of the water signal, whereas the CPMG filter enabled the suppression of those resonances from molecular species with long correlation times, which in this instance correlate to the signals of those SSAs coordinated to the nanodisc, rather than those which exist as free species in solution. Comparative integration of the resonances corresponding to the SSA cation or anion, standardised against the DSS internal standard, permits the percentage of the individual SSA components coordinated to the phospholipid nanodisc to be established with respect to increasing nanodisc concentration.
However, when considering the 1/EC50 for the SSA cationic component (Fig. 10b), the reverse is true. This is perhaps expected, but nevertheless despite the identical experimental conditions, including the same TBA counter cation across SSAs 5–12, there is a marked difference in the 1/EC50 obtained, where the only difference is the SSA anion present. This is most noticeable for the series of SSA titrations involving the PE : PG mix (Table 2) nanodiscs. The only variation within this set of titrations is the structure of the SSA anion; we therefore conclude that the SSA anion is influencing SSA cation nanodisc coordination events. This observation provides evidence for the presence of further complex interactions informing SSA:nanodisc coordination processes. […]
Data were acquired in endpoint mode. All experiments were repeated in triplicate […]
Nanodisc preparation: Lipid films were resuspended in Buffer (20 mM NaCl, 20 mM NaH 2PO4, pH 7.4) and sonicated for 1 hour, at a 5:1 ratio, SMA was added and incubated at 37 °C for 1 hour. Dialysed overnight in 5 L of the same buffer in 10 KDa cut-off dialysis tubing, concentrated, and underwent gel filtration size exclusion chromatography on a Superdex 200 10/300 GL column (GE Healthcare) in the same buffer, whilst monitoring absorbance at 260 nm. Nanodisc quantification carried out via monitoring of absorbance at 260 nm using a calibration curve.2
1H NMR CPMG: 1H NMR CPMG3,4 spectra were obtained with a Bruker Avance III […] spectrometer equipped with a TCIP cryoprobe at 298 K. Samples were supplemented with 5 % D 2O and 0.02 mM 4,4-dimethyl4-silapentane-1-sulfonic acid (DSS). The standard zgprcpmg pulse sequence from the Bruker library was modified with a watergate element to allow suppressi on of the water signal and was used for all experiments. Although this sequence is readily obtainable, we are happy to provide it on request. The P1 pulses were 9 µs at a power of 7.9 W. Presaturation was applied between […]

The mark [3] stands for this setting: concentration of nanodisc coordinating 50 % of the SSA cation, Hill Plot fit, Vmax fixed 100 %, read-out: EC50 PG, cationic SSA component.
Setting [4] is: n = 3, 0.5 McFarland standard, after 900 min, number in bracket = efficacy rank.
The mark [5] stands for this setting: Table S3, conversion of the mM values of Table 1, after 900 mins.
The mark [6] stands for this setting: concentration of nanodisc coordinating 50 % of the SSA anion, Hill Plot fit, Vmax fixed 100 %, read-out: EC50 PG, anionic SSA component.

Where two headings read alike, the source gives them in different places. A value given as a limit tells only on which side of the number the result lay.

Turning to `Cc1ccc2nc(NC(=O)NCS(=O)(=O)O)sc2c1` [SSA 7], the inhibition (usually the drop in the measured response relative to a control, in per cent) at 3300 µM in test [1] (after 900 min) is less than 10%. Besides, in test [1] (Table S3, screening at 3.3 mM), the “initial antimicrobial screening outcome, E. coli” value was “Fail”. Further, the EC50 (in general, the concentration giving half of the maximal effect) in test [2] (setting [3]) turned out to be 3420 nM.
As for `Cc1ccc2nc(-c3ccc(NC(=O)NCCC(=O)O)cc3)sc2c1` [SSA 9], the MIC50 (in general, an inhibitory concentration at the 50% level, which refers to growth in some studies and to a panel of isolates in others) in test [1] (setting [4]) was 2160 µM; in test [1] (setting [5]), 1370 µg/mL. The EC50 in test [2] (setting [6]) was determined as 1070 nM; in test [2] (setting [3]), 2690 nM.
For the compound `O=C(O)CNC(=O)Nc1ccc(C(F)(F)F)cc1` [SSA 4], the MIC50 in test [1] (setting [5]) turned out to be 630 µg/mL.
For the compound `O=C(NCS(=O)(=O)O)Nc1ccccc1-c1nc2ccccc2s1` [SSA 5], in test [1] (setting [5]), the MIC50 came to 2160 µg/mL. Besides, the concentration giving a half-maximal response (EC50) in test [2] (experimental endpoint 4.00 µM nanodisc, read-out: EC50 PG, cationic SSA component) was greater than 4000 nM.
Regarding `O=C(NCS(=O)(=O)O)Nc1ccc(-c2nc3ccccc3s2)cc1` [SSA 8], the MIC50 came to 3660 µM in test [1] (setting [4]) and 2210 µg/mL in test [1] (setting [5]). Besides, the EC50 in test [2] (setting [3]) turned out to be 3110 nM.
In turn, `O=C(NCS(=O)(=O)O)Nc1ccc(C(F)(F)F)cc1` [SSA 1] had an MIC50 in test [1] (setting [5]) of 2080 µg/mL.
With `Cc1ccc2nc(-c3ccc(NC(=O)NCS(=O)(=O)O)cc3)sc2c1` [SSA 6], in test [1] (setting [5]), the MIC50 stood at 3110 µg/mL. Besides, the values for the concentration for a half-maximal effect (EC50) in test [2] (setting [6]) and in test [2] (setting [3]) were 820 nM and 2860 nM, respectively.
In the case of `Cc1ccc2nc(-c3ccc(NC(=O)NCC(=O)O)cc3)sc2c1` [SSA 11], the EC50 in test [2] (setting [6]) came out at 2100 nM; in test [2] (setting [3]) it was 2820 nM.
For `Cc1ccc2nc(-c3ccc(NC(=S)NCS(=O)(=O)O)cc3)sc2c1` [SSA 12], the inhibition at 3300 µM in test [1] (after 900 min) was less than 10%. In addition, the half-maximal effective concentration (EC50) was determined as 290 nM in test [2] (setting [6]) and 900 nM in test [2] (setting [3]).
For `Cc1ccc2nc(-c3ccc(NC(=O)NCCCS(=O)(=O)O)cc3)sc2c1` [SSA 10], the MIC50 was found to be 1160 µM in test [1] (setting [4]) and 750 µg/mL in test [1] (setting [5]). Further, the concentration giving a half-maximal response (EC50) is 500 nM in test [2] (setting [6]) and 1160 nM in test [2] (setting [3]).
As for `O=C(NCCCS(=O)(=O)O)Nc1ccc(C(F)(F)F)cc1` [SSA 2], the MIC50 in test [1] (setting [5]) is 840 µg/mL.
